Measured values published in patent publication US20230111310A1, “CARBOXYLIC ACID DERIVATIVE-SUBSTITUTED IMINO ARYL COMPOUND, PREPARATION METHOD THEREFOR, HERBICIDAL COMPOSITION AND USE THEREOF” (Qingdao Kingagroot Chemical Compound Co., Ltd., priority 2020, published 2023).

Tests used:
Assay in all cases: Weeding effect in post-emergence stage
Assay type in all cases: in vivo
Abutilon theophrasti = conditions: for Weeding effect in post-emergence stage, Abutilon theophrasti: level of fresh weight growth control rate; for Weeding effect in post-emergence stage, Abutilon theophrasti (level): fresh weight control rate level
Source text: (§1) The activity level criteria for plant damage (i.e., growth control rate) are as follows:
(§2) Monocotyledonous and dicotyledonous weed seeds (Descurainia sophia, Capsella bursa-pastoris, Abutilon theophrasti, Galium aparine, Stellaria media, Lithospermum arvense, rorippa indica, Alopecurus aequalis, Alopecurus japonicus, Eleusine indica, Beckmannia syzigachne, Sclerochloa dura, Conyza Canadensis, Phleum paniculatum, Veronica didyma Tenore, Bromus japonicus, Aegilops tauschii, Phalaris arundinacea, Amaranthus retroflexus, Chenopodiaceae, Commelina communis, Sonchus arvensis, Convolvulus arvensis, Cirsium setosum, Bidens tripartita L., Solanum nigrum, Acalypha australis, Digitaria sanguinalis, Echinochloa crusgalli, Setaria viridis, Setaria glauca, Leptochloa chinensis, Monochoria vaginalis, Sagittaria trifolia, Scirpus juncoides, Cyperus rotundus, Cyperus iria, Cyperus difformis, Fimbristylis, Portulaca oleracea, Xanthium sibiricum, Pharbitis nil, etc.) and major crop seeds (wheat, corn, rice, soybean, cotton, oilseed rape, millet, sorghum, potato, sesame, ricinus, etc.) were placed in plastic pots filled with soil, then covered with 0.5-2 cm of soil, allowed to grow in a good greenhouse environment. After 2 weeks of sowing, the test plants were treated in the 2-3 leaf stage. The tested compounds of the present invention were respectively dissolved in acetone, then added with Tween 80 and 1.5 liter/ha of emulsifiable concentrate of methyl oleate as synergist, diluted with a certain amount of water to obtain a solution with a certain concentration, and sprayed with a spray tower onto the plants. After the application, the plants were cultured for 3 weeks in the greenhouse, and then the experimental results of the weeding were counted. […]

Alopecurus japonicus = conditions: for Weeding effect in post-emergence stage, Alopecurus japonicus: level of fresh weight growth control rate; for Weeding effect in post-emergence stage, Alopecurus japonicus (level): fresh weight control rate level
Source text: as §1, §2

Digitaria sanguinalis = conditions: for Weeding effect in post-emergence stage, Digitaria sanguinalis: level of fresh weight growth control rate; for Weeding effect in post-emergence stage, Digitaria sanguinalis (level): fresh weight control rate level
Source text: as §1, §2

Eleusine indica = conditions: for Weeding effect in post-emergence stage, Eleusine indica: level of fresh weight growth control rate; for Weeding effect in post-emergence stage, Eleusine indica (level): fresh weight control rate level
Source text: as §1, §2

Setaria viridis = conditions: for Weeding effect in post-emergence stage, Setaria viridis: level of fresh weight growth control rate; for Weeding effect in post-emergence stage, Setaria viridis (level): fresh weight control rate level
Source text: as §1, §2

Echinochloa crusgalli = conditions: for Weeding effect in post-emergence stage, Echinochloa crusgalli: level of fresh weight growth control rate; for Weeding effect in post-emergence stage, Echinochloa crusgalli (level): fresh weight control rate level
Source text: as §1
Monocotyledonous and dicotyledonous weed seeds (Descurainia sophia, Capsella bursa-pastoris, Abutilon theophrasti, Galium aparine, Stellaria media, Lithospermum arvense, rorippa indica, Alopecurus aequalis, Alopecurus japonicus, Eleusine indica, Beckmannia syzigachne, Sclerochloa dura, Conyza Canadensis, Phleum paniculatum, Veronica didyma Tenore, Bromus japonicus, Aegilops tauschii, Phalaris arundinacea, Amaranthus retroflexus, Chenopodiaceae, Commelina communis, Sonchus arvensis, Convolvulus arvensis, Cirsium setosum, Bidens tripartita L., Solanum nigrum, Acalypha australis, Digitaria sanguinalis, Echinochloa crusgalli, Setaria viridis, Setaria glauca, Leptochloa chinensis, Monochoria vaginalis, Sagittaria trifolia, Scirpus juncoides, Cyperus rotundus, Cyperus iria, Cyperus difformis, Fimbristylis, Portulaca oleracea, Xanthium sibiricum, Pharbitis nil, etc.) and major crop seeds (wheat, corn, rice, soybean, cotton, oilseed rape, millet, sorghum, potato, sesame, ricinus, etc.) were placed in plastic pots filled with soil, then covered with 0.5-2 cm of soil, allowed to grow in a good greenhouse environment. After 2 weeks of sowing, the test plants were treated in the 2-3 leaf stage. The tested compounds of the present invention were respectively dissolved in acetone, then added with Tween 80 and 1.5 liter/ha of emulsifiable concentrate of methyl oleate as synergist, diluted with a certain amount of water to obtain a solution with a certain concentration, and sprayed with a spray tower onto the plants. After the application, the plants were cultured for 3 weeks in the greenhouse, and then the experimental results of the weeding were counted. The doses of the used compounds were 500, 250, 125, 60, 30, 15, 7.5 g/ha, and the averages were obtained by repeating for three times.

SMILES | Weeding effect in post-emergence stage, Abutilon theophrasti (Abutilon theophrasti; Dose 15 g/ha) | Weeding effect in post-emergence stage, Alopecurus japonicus (Alopecurus japonicus; Dose 15 g/ha) | Weeding effect in post-emergence stage, Digitaria sanguinalis (Digitaria sanguinalis; Dose 15 g/ha) | Weeding effect in post-emergence stage, Eleusine indica (Eleusine indica; Dose 15 g/ha) | Weeding effect in post-emergence stage, Setaria viridis (Setaria viridis; Dose 15 g/ha) | Weeding effect in post-emergence stage, Echinochloa crusgalli (Echinochloa crusgalli; Dose 15 g/ha) | other results
CC(O/N=C/c1cc(-n2c(=O)n(C)c(=S)n(C)c2=O)c(F)cc1Cl)C(=O)OCCF (racemic) [Compound 10] | 5 (Level 5: growth control rate is above 85%) | 5 (Level 5: growth control rate is above 85%) | 5 (Level 5: growth control rate is above 85%) | 5 (Level 5: growth control rate is above 85%) | 5 (Level 5: growth control rate is above 85%) | 5 (Level 5: growth control rate is above 85%) | 
CCOC(=O)OC(C)OC(=O)C(C)O/N=C/c1cc(-n2c(=O)cc(C(F)(F)F)n(C)c2=O)c(F)cc1Cl (stereo not drawn) [Compound 246] | 5 (Level 5: growth control rate is above 85%) | 5 (Level 5: growth control rate is above 85%) | 5 (Level 5: growth control rate is above 85%) | 5 (Level 5: growth control rate is above 85%) | 5 (Level 5: growth control rate is above 85%) | 5 (Level 5: growth control rate is above 85%) | 
COC(=O)C(OC)OC(=O)C(C)O/N=C/c1cc(-n2c(=O)cc(C(F)(F)F)n(C)c2=O)c(F)cc1Cl (stereo not drawn) [Compound 245] |  |  |  |  |  |  | Weeding effect in post-emergence stage, Abutilon theophrasti (Abutilon theophrasti; Dose 30 g/ha): 5 (Level 5: growth control rate is above 85%); Weeding effect in post-emergence stage, Alopecurus japonicus (Alopecurus japonicus; Dose 30 g/ha): 5 (Level 5: growth control rate is above 85%); Weeding effect in post-emergence stage, Digitaria sanguinalis (Digitaria sanguinalis; Dose 30 g/ha): 5 (Level 5: growth control rate is above 85%); Weeding effect in post-emergence stage, Eleusine indica (Eleusine indica; Dose 30 g/ha): 5 (Level 5: growth control rate is above 85%); Weeding effect in post-emergence stage, Setaria viridis (Setaria viridis; Dose 30 g/ha): 5 (Level 5: growth control rate is above 85%); Weeding effect in post-emergence stage, Echinochloa crusgalli (Echinochloa crusgalli; Dose 30 g/ha): 5 (Level 5: growth control rate is above 85%)
CC(O/N=C/c1cc(-n2c(=O)cc(C(F)(F)F)n(C)c2=O)c(F)cc1Cl)C(=O)OCC#N (racemic) [Compound 226] | 5 (Level 5: growth control rate is above 85%) | 5 (Level 5: growth control rate is above 85%) | 5 (Level 5: growth control rate is above 85%) | 5 (Level 5: growth control rate is above 85%) | 5 (Level 5: growth control rate is above 85%) | 5 (Level 5: growth control rate is above 85%) | 
CCO[C@H](O/N=C/c1cc(-n2c(=O)cc(C(F)(F)F)n(C)c2=O)c(F)cc1Cl)C(=O)OC [331(R)] | 5 (Level 5: growth control rate is above 85%) | 5 (Level 5: growth control rate is above 85%) | 5 (Level 5: growth control rate is above 85%) | 5 (Level 5: growth control rate is above 85%) | 5 (Level 5: growth control rate is above 85%) | 5 (Level 5: growth control rate is above 85%) | 
CCCCCCCOC(=O)C(C)O/N=C/c1cc(-n2c(=O)cc(C(F)(F)F)n(C)c2=O)c(F)cc1Cl (racemic) [Compound 205] | 5 (Level 5: growth control rate is above 85%) | 5 (Level 5: growth control rate is above 85%) | 5 (Level 5: growth control rate is above 85%) | 5 (Level 5: growth control rate is above 85%) | 5 (Level 5: growth control rate is above 85%) | 5 (Level 5: growth control rate is above 85%) | 
CCn1c(C(F)(F)F)cc(=O)n(-c2cc(/C=N/O[C@H](C)C(=O)OC)c(Cl)cc2F)c1=O [426(R)] |  |  |  |  |  |  | Weeding effect in post-emergence stage, Abutilon theophrasti (level) (Abutilon theophrasti; Dose 250 g/ha): 5 (Level 5: growth control rate is above 85%); Weeding effect in post-emergence stage, Alopecurus japonicus (level) (Alopecurus japonicus; Dose 250 g/ha): 5 (Level 5: growth control rate is above 85%); Weeding effect in post-emergence stage, Digitaria sanguinalis (level) (Digitaria sanguinalis; Dose 250 g/ha): 5 (Level 5: growth control rate is above 85%); Weeding effect in post-emergence stage, Eleusine indica (level) (Eleusine indica; Dose 250 g/ha): 5 (Level 5: growth control rate is above 85%); Weeding effect in post-emergence stage, Setaria viridis (level) (Setaria viridis; Dose 250 g/ha): 5 (Level 5: growth control rate is above 85%); Weeding effect in post-emergence stage, Echinochloa crusgalli (level) (Echinochloa crusgalli; Dose 250 g/ha): 5 (Level 5: growth control rate is above 85%)
CCCCCCC(C)OC(=O)C(C)O/N=C/c1cc(-n2c(=O)cc(C(F)(F)F)n(C)c2=O)c(F)cc1Cl (racemic) [Compound 207] | 5 (Level 5: growth control rate is above 85%) | 5 (Level 5: growth control rate is above 85%) | 5 (Level 5: growth control rate is above 85%) | 5 (Level 5: growth control rate is above 85%) | 5 (Level 5: growth control rate is above 85%) | 5 (Level 5: growth control rate is above 85%) | 
C[C@@H](O/N=C/c1cc(-n2c(=O)cc(C(F)(F)F)n(C)c2=O)c(F)cc1Cl)C(=O)OCc1ccc(F)cc1 [286(R)] |  |  |  |  |  |  | Weeding effect in post-emergence stage, Abutilon theophrasti (Abutilon theophrasti; Dose 30 g/ha): 5 (Level 5: growth control rate is above 85%); Weeding effect in post-emergence stage, Alopecurus japonicus (Alopecurus japonicus; Dose 30 g/ha): 5 (Level 5: growth control rate is above 85%); Weeding effect in post-emergence stage, Digitaria sanguinalis (Digitaria sanguinalis; Dose 30 g/ha): 5 (Level 5: growth control rate is above 85%); Weeding effect in post-emergence stage, Eleusine indica (Eleusine indica; Dose 30 g/ha): 5 (Level 5: growth control rate is above 85%); Weeding effect in post-emergence stage, Setaria viridis (Setaria viridis; Dose 30 g/ha): 5 (Level 5: growth control rate is above 85%); Weeding effect in post-emergence stage, Echinochloa crusgalli (Echinochloa crusgalli; Dose 30 g/ha): 5 (Level 5: growth control rate is above 85%)
C[C@@H](O/N=C/c1cc(-n2c(=O)cc(C(F)(F)F)n(C)c2=O)c(F)cc1Cl)C(=O)OCc1ccncc1 [303(R)] | 5 (Level 5: growth control rate is above 85%) | 5 (Level 5: growth control rate is above 85%) | 5 (Level 5: growth control rate is above 85%) | 5 (Level 5: growth control rate is above 85%) | 5 (Level 5: growth control rate is above 85%) | 5 (Level 5: growth control rate is above 85%) | 
CC[C@@H](O/N=C/c1cc(-n2c(=O)n(C)c(=S)n(C)c2=O)c(F)cc1Cl)C(=O)OC [72(R)] | 5 (Level 5: growth control rate is above 85%) | 5 (Level 5: growth control rate is above 85%) | 5 (Level 5: growth control rate is above 85%) | 5 (Level 5: growth control rate is above 85%) | 5 (Level 5: growth control rate is above 85%) | 5 (Level 5: growth control rate is above 85%) | 
COC(=O)C(C)O/N=C/c1cc(-n2c(=S)cc(C(F)(F)F)n(C)c2=S)c(F)cc1Br (racemic) [Compound 391] |  |  |  |  |  |  | Weeding effect in post-emergence stage, Abutilon theophrasti (level) (Abutilon theophrasti; Dose 60 g/ha): 5 (Level 5: growth control rate is above 85%); Weeding effect in post-emergence stage, Alopecurus japonicus (level) (Alopecurus japonicus; Dose 60 g/ha): 5 (Level 5: growth control rate is above 85%); Weeding effect in post-emergence stage, Digitaria sanguinalis (level) (Digitaria sanguinalis; Dose 60 g/ha): 5 (Level 5: growth control rate is above 85%); Weeding effect in post-emergence stage, Eleusine indica (level) (Eleusine indica; Dose 60 g/ha): 5 (Level 5: growth control rate is above 85%); Weeding effect in post-emergence stage, Setaria viridis (level) (Setaria viridis; Dose 60 g/ha): 5 (Level 5: growth control rate is above 85%); Weeding effect in post-emergence stage, Echinochloa crusgalli (level) (Echinochloa crusgalli; Dose 60 g/ha): 5 (Level 5: growth control rate is above 85%)
